In PubChem BioAssay AID2061108 (Research group of Professor Matthew Todd, School of …, 2025):
Activity calls are given as the source filed them. The rule behind the calls is not given here.

Columns and labels:
Assay in all cases: microbial growth inhibition plus red cell haemolysis – Idler compounds, first plate, PMBN-permeabilized strains, profiling panel (AID 2061108)
Set-up in all cases: haemolysis: dose or concentration left out as unconfirmed
[1] = test system: A. baumannii ATCC 17978 + PMBN growth inhibition, 100 uM; conditions: A. baumannii plus PMBN growth inhibition, 100 µM; stronger effect = higher value
[2] = test system: A. baumannii ATCC 17978 growth inhibition, 100 uM; conditions: S. aureus ATCC 9144 growth inhibition; measured here: A. baumannii ATCC 17978; at 100 µM; stronger effect = higher value
[3] = test system: C. albicans NCPF 3281 growth inhibition, 100 uM; conditions: S. aureus ATCC 9144 growth inhibition; measured here: C. albicans NCPF 3281; at 100 µM; stronger effect = higher value
[4] = test system: E. coli NCTC 12923 + PMBN growth inhibition, 100 uM; conditions: S. aureus ATCC 9144 growth inhibition; measured here: E. coli plus PMBN; at 100 µM; stronger effect = higher value
[5] = test system: E. coli NCTC 12923 growth inhibition, 100 uM; conditions: E. coli NCTC 12923 growth inhibition, 100 µM; stronger effect = higher value
[6] = test system: M. abscessus growth inhibition, 10 uM; conditions: S. aureus ATCC 9144 growth inhibition; measured here: M. abscessus; at 10 µM
[7] = test system: M. avium growth inhibition, 10 uM; conditions: M. avium growth inhibition, 10 µM
[8] = test system: S. aureus ATCC 9144 growth inhibition, 100 uM; conditions: S. aureus ATCC 9144 growth inhibition; at 100 µM; stronger effect = higher value
[9] = test system: red blood cell haemolysis; conditions: stronger effect = higher value; dose or concentration not given here

SMILES | inhibition [1] | inhibition [2] | inhibition [3] | inhibition [4] | inhibition [5] | inhibition [6] | inhibition [7] | inhibition [8] | haemolysis [9]
COc1ccc2c(c1)nc(-c1ccc[nH]1)c1[nH]ccc12 | 101% | 34.2% | 101% | 100% | 43.8% | 0.154% | 1.82% | 102% | 0.0477%
C=CC(=O)N1CCCc2c(C(=O)O)cccc21 | 18.6% | -1.2% | -51.3% | -5.12% | -5.27% | -0.114% | 0.285% | 17% (inactive) | 0.129%
CCn1c(SCC(=O)N(C)c2ccccc2)nnc1-c1cn(C)nc1OC | 4.29% | -2.53% | 8.04% | -23.5% | -41.1% | 0.00036% | -1.26% | -11.4% (inactive) | 0.564%
Cc1ccc(C)c(N2CCN(C(=O)C3CCN(c4ncnc5c4sc4ncccc45)CC3)CC2)c1 | 5.07% | -3.57% | 24.6% | 0.988% | 9.19% | -1.18% | 9.54% | 6.17% (inactive) | 0.267%
O=c1[nH]c(=O)c2cc(S(=O)(=O)Nc3cc(F)c(NCCN4CCOCC4)c(F)c3)ccc2[nH]1 | 12% | -1.9% | -21.1% | 0.988% | -4.32% | -0.977% | -0.106% | 17.7% (inactive) | -0.0292%
O=c1[nH]c(=O)c2cc(S(=O)(=O)Nc3cc(F)c(N4CCN(c5ccccn5)CC4)c(F)c3)ccc2[nH]1 | 24% | 4.58% | -115% | 9.51% | 0.946% | -0.0939% | 1.7% | 10.2% (inactive) | 0.458%
COc1ccc(Nc2nc(-c3ccoc3)cs2)c(C)c1 | 16.4% | -13.9% | -127% | -20.1% | -15% | -1.05% | 0.988% | -12.5% (inactive) | 0.164%
Cc1cc(C)c(S(=O)(=O)N2CCC(C(=O)NCc3cccnc3)CC2)c(C)c1 | 25.7% | -2.53% | -44.9% | 5.73% | -1.08% | 0.182% | -0.596% | 12.6% (inactive) | 0.266%
O=C(Nc1cccc(C(F)(F)F)c1)C(Cl)C(=O)c1ccccc1 (configuration not stated) | 99.6% | 46.6% | 101% | 100% | 34.5% | 0.0425% | 1.13% | 101% | 0.0983%
CCOc1ccc(-c2cc(=O)n(CC(=O)N3CCC(Cc4ccccc4)CC3)cn2)cc1 | 11% | -13.5% | -40.2% | 4.32% | -16.4% | -1.03% | 0.214% | 5.33% (inactive) | 2.13%
O=C(Nc1ccccc1)C(Cl)C(=O)c1ccccc1 (configuration not stated) | 98.6% | 37.9% | 101% | 61.4% | 20.3% | -1.14% | 1.66% | 100% | -0.111%
O=S(=O)(c1ccc2nncn2c1)N(Cc1cccc(F)c1)c1ccc2c(c1)OCCO2 | 11.3% | -2.17% | -82.4% | -20.9% | -55.8% | -0.196% | -0.711% | -8.6% (inactive) | 8.17%
CC1=CC(=O)C=C(C)C1=NOS(=O)(=O)c1ccc(Cl)cc1 | -8.84% | -15.4% | -1.74% | -20.5% | -42.6% | -0.716% | -0.499% | 98.2% | 0.0834%
CCC(C)NS(=O)(=O)CCCOc1ccc(F)cc1 (configuration not stated) | 28.8% | -4.88% | -63.1% | -9.51% | 0% | -0.898% | -0.527% | 10.3% (inactive) | -0.19%
COc1cc2nc(Nc3cc(C)[nH]n3)nc(Nc3cc(C)[nH]n3)c2cc1OC | 19.6% | 18.8% | 84.2% | 49.1% | 12.7% | 0.769% | 1.15% | 37.5% | 0.208%
O=C(O)c1cc(-c2ccco2)on1 | 19.4% | -3.73% | -23.7% | 3.29% | 1.89% | -0.23% | -0.19% | 20.4% (inactive) | 0.22%
CCCOc1cc(S(=O)(=O)n2cccn2)ccc1Br | 18.4% | -7.35% | -62.6% | -8.29% | -38.1% | -0.42% | -1.53% | -33.2% (inactive) | 0.858%
O=C(Nc1ccc(OC2CCCCC2)cc1)c1ccc(-c2nn[nH]n2)cc1 | 17.1% | -15.8% | 6.07% | 6.17% | 1.08% | -1.07% | -0.389% | 7.17% (inactive) | 0.0779%
O=C(N/N=C/c1ccncc1O)c1ccncc1 | 22.8% | 12.6% | 79.2% | 1.36% | 18.6% | -0.377% | -1.89% | 22% (inactive) | -0.102%
CN(C)C(=O)c1cncc(-c2cccc(C3(C#N)CC3)c2)c1 | 23.7% | 3.37% | -67.1% | -3.05% | -5% | -0.0258% | 0.148% | 4.91% (inactive) | 0.107%
CCS(=O)(=O)c1ccc(CNc2nc3ccccc3cc2C#N)s1 | 28.4% | -4.82% | -73.7% | -0.61% | -13.4% | 0.173% | -0.121% | 22.3% (inactive) | 0.247%
C=CCSc1nc2c(c(=O)[nH]1)C(c1ccc(N(C)C)cc1)C1=C(CCCC1=O)N2 (configuration not stated) | 1.16% | 1.79% | 15.9% | -12.3% | -40% | -0.888% | 0.543% | -16.3% (inactive) | -0.046%
CCC(C)C(N)C(=O)NS(=O)(=O)c1cccc(-c2cc3ncnc(N)c3s2)c1 (configuration not stated) | -15.9% | -17.8% | -21.7% | -27.4% | -29.6% | -0.383% | 10.3% | -39.6% (inactive) | 0.094%
CC1(C)C2CCC1(C)C(OCC(O)CNC1CCCCC1)C2 (configuration not stated) | 79.1% | 29.4% | 100% | 100% | 19.9% | -1.25% | -0.797% | 17% | 0.00104%
Nc1ncnc2cc(-c3cccc(S(=O)(=O)NC(=O)C(N)CC(=O)O)c3)sc12 (configuration not stated) | 9.86% | -7.14% | -64.6% | 8.15% | 0.676% | -1.16% | 11.9% | 15.7% (inactive) | -0.194%
COC(COc1cncc2nnc(-c3ccc(OC(F)F)cc3)n12)c1ccccc1 (configuration not stated) | -15.5% | -16.4% | -17.3% | -28.1% | -38.8% | -0.536% | -0.713% | -22.8% (inactive) | -0.0885%
Nc1ncnc2cc(-c3cccc(S(=O)(=O)NC(=O)C4CCCN4)c3)sc12 (configuration not stated) | -10.6% | -13% | -16.7% | -40.7% | -67.2% | -0.89% | 5.56% | 48.7% (inactive) | 0.251%
O=C(N/N=C/c1cnc(C(F)(F)F)nc1)c1ccncc1 | 21.6% | 10.4% | 17% | 11.2% | -2.16% | 0.125% | 1.52% | 16.7% (inactive) | 0.15%
